Data: ChEMBL document CHEMBL5370593, “Discovery and In Vitro Characterization of SPL028: Deuterated N,N-Dimethyltryptamine” (ACS Med Chem Lett, 2023)

Columns and labels:
[1] = Ratio of drug concentration in human blood to plasma at 5 uM incubated for 30 mins by LC-MS/MS analysis; format: ADME, cell-free; conditions: whole blood
[2] = Metabolic stability in human hepatocytes assessed as half life measured per million cells incubated upto 60 mins by LC-MS/MS analysis; format: ADME, cell-based, Hepatocyte
[3] = Metabolic stability in human hepatocytes assessed as intrinsic clearance measured per million cells incubated upto 60 mins by LC-MS/MS analysis; format: ADME, cell-based, Hepatocyte; conditions: read-out: CLH
[4] = Plasma protein binding in human assessed as unbound fraction by rapid equilibrium dialysis analysis; format: ADME, cell-free

**Q.** Which blood plasma ratio at 0.5 h, 5 µM [1] does the source give for `O=C(O)Cc1ccccc1Nc1c(Cl)cccc1Cl` [DICLOFENAC] here?
**A.** The blood plasma ratio at 0.5 h, 5 µM was 0.63.

**Q.** What does the source list for `O=C(O)/C=C/C(=O)O.[2H]C([2H])([2H])N(CCc1c[nH]c2ccccc12)C([2H])([2H])[2H]`?
**A.** half-life [2]: 1.95 h; hepatocyte CLint [3]: 15.2 µL/min/1e6 cells

**Q.** With `CCN(CC)CCCC(C)Nc1ccnc2cc(Cl)ccc12` (configuration not stated) [CHLOROQUINE] as the molecule, how does the blood plasma ratio at 0.5 h, 5 µM [1] read?
**A.** Its blood plasma ratio at 0.5 h, 5 µM is 4.93.

**Q.** What does the source list for `O=C(O)/C=C/C(=O)O.[2H]C([2H])([2H])N(C([2H])([2H])[2H])C([2H])([2H])Cc1c[nH]c2ccccc12`?
**A.** half-life [2]: 3.45 h; hepatocyte CLint [3]: 9.3 µL/min/1e6 cells

**Q.** For `CNS(=O)(=O)Cc1ccc2[nH]cc(CCN(C)C)c2c1`, which fraction unbound [4] is on record?
**A.** Its fraction unbound is 0.68.
